From ChEMBL document CHEMBL3351995, “β-Nitro substituted carboxylic acids and their cytotoxicity” (Bioorg Med Chem Lett, 2014)
Calls of active or inactive are those of the source. The calls are words filed in the database; no cut-off is given here.

Columns and labels:
[1] = Cytotoxicity against human Lipo cells by SRB assay; type: functional, cell-based
[2] = Cytotoxicity against human DLD1 cells by SRB assay; type: functional, cell-based; conditions: DLD-1
[3] = Cytotoxicity against human SW1736 cells by SRB assay; type: functional, cell-based; conditions: SW-1736
[4] = test system: 8505C; experiment: Cytotoxicity against human 8505C cells by SRB assay; type: functional, cell-based
[5] = Cytotoxicity against human A253 cells by SRB assay; type: functional, cell-based
[6] = test system: MCF7; experiment: Cytotoxicity against human MCF7 cells by SRB assay; type: functional, cell-based
[7] = Cytotoxicity against mouse NIH/3T3 cells by SRB assay; type: cell-based; conditions: NIH3T3
[8] = test system: A549; experiment: Cytotoxicity against human A549 cells by SRB assay; type: functional, cell-based
[9] = test system: A2780; experiment: Cytotoxicity against human A2780 cells by SRB assay; type: functional, cell-based
[10] = Cytotoxicity against human 518A2 cells by SRB assay; type: functional, cell-based
[11] = test system: 518A2; experiment: Induction of apoptosis in human 518A2 cells assessed as necrotic cells at 35 uM after 48 or 72 hrs by annexin V-FITC/propidium iodide staining-based flow cytometry; type: functional
[12] = test system: 518A2; experiment: Induction of apoptosis in human 518A2 cells assessed as apoptotic ells at 35 uM after 48 or 72 hrs by annexin V-FITC/propidium iodide staining-based flow cytometry; type: functional
[13] = test system: 518A2; experiment: Induction of apoptosis in human 518A2 cells assessed as normal cells at 35 uM after 48 or 72 hrs by annexin V-FITC/propidium iodide staining-based flow cytometry; type: functional
[14] = test system: 518A2; experiment: Induction of apoptosis in human 518A2 cells assessed as secondary necrotic cells at 35 uM after 24 hrs by fluorescence microscopy; type: functional, cell-based
[15] = test system: 518A2; experiment: Induction of apoptosis in human 518A2 cells assessed as secondary necrotic cells at 35 uM after 48 or 72 hrs by annexin V-FITC/propidium iodide staining-based flow cytometry; type: functional

CCOC(=O)C(CN)c1ccc(Cl)cc1 (stereo not given)
IC50 [1]: > 30 µM
IC50 [2]: > 30 µM
IC50 [3]: > 30 µM
IC50 [4]: > 30 µM
IC50 [5]: > 30 µM
IC50 [6]: > 30 µM
IC50 [7]: 25.7 µM
IC50 [8]: > 30 µM
IC50 [9]: 22.3 µM
IC50 [10]: > 30 µM

C=C(C#N)c1ccc(Cl)cc1
IC50 [1]: > 30 µM
IC50 [2]: > 30 µM
IC50 [3]: > 30 µM
IC50 [4]: > 30 µM
IC50 [5]: > 30 µM
IC50 [6]: 14.2 µM
IC50 [7]: 23.5 µM
IC50 [8]: > 30 µM
IC50 [9]: 15.4 µM
IC50 [10]: > 30 µM

CCOC(=O)C(C[N+](=O)[O-])c1ccc(C(F)(F)F)cc1 (stereo not given)
IC50 [1]: 15.2 µM
IC50 [2]: 11 µM
IC50 [3]: 6.3 µM
IC50 [4]: 13.8 µM
IC50 [5]: 9.8 µM
IC50 [6]: 6.7 µM
IC50 [7]: 9.7 µM
IC50 [8]: 9.9 µM
IC50 [9]: 6.6 µM
IC50 [10]: 15.2 µM

CCOC(=O)C(C[N+](=O)[O-])c1cccc(OC(F)(F)F)c1 (stereo not given)
IC50 [1]: > 30 µM
IC50 [2]: > 30 µM
IC50 [3]: 16.6 µM
IC50 [4]: 22.1 µM
IC50 [5]: 11.8 µM
IC50 [6]: > 30 µM
IC50 [7]: > 30 µM
IC50 [8]: 19.9 µM
IC50 [9]: 2.2 µM
IC50 [10]: 14.5 µM

CCOC(=O)C(C[N+](=O)[O-])c1cccc(C(F)(F)F)c1 (stereo not given)
IC50 [1]: 10.9 µM
IC50 [2]: 8.2 µM
IC50 [3]: 4.7 µM
IC50 [4]: 20.7 µM
IC50 [5]: 7.2 µM
IC50 [6]: 7.6 µM
IC50 [7]: 10.2 µM
IC50 [8]: 13.6 µM
IC50 [9]: 6.3 µM
IC50 [10]: 8.6 µM

CCOC(=O)C(C[N+](=O)[O-])c1cccc(Cl)c1 (stereo not given)
IC50 [1]: 19.5 µM
IC50 [2]: 14.5 µM
IC50 [3]: 8.3 µM
IC50 [4]: 14.9 µM
IC50 [5]: 10.6 µM
IC50 [6]: 17.9 µM
IC50 [7]: 21.1 µM
IC50 [8]: 3.5 µM
IC50 [9]: 14.4 µM
IC50 [10]: 7.3 µM

COC(=O)C(C[N+](=O)[O-])c1ccc(Cl)cc1 (stereo not given)
IC50 [1]: 8.7 µM
IC50 [2]: 5.2 µM
IC50 [3]: 5.8 µM
IC50 [4]: 11.6 µM
IC50 [5]: 5.4 µM
IC50 [6]: 3.4 µM
IC50 [7]: 2.1 µM
IC50 [8]: 10.5 µM
IC50 [9]: 2.5 µM
IC50 [10]: 5.8 µM

O=C(Cc1ccccc1)C(C[N+](=O)[O-])c1ccc(Cl)cc1 (stereo not given)
IC50 [1]: 28.9 µM
IC50 [2]: 22.5 µM
IC50 [3]: 23.9 µM
IC50 [4]: > 30 µM
IC50 [5]: 21.4 µM
IC50 [6]: 18.2 µM
IC50 [7]: 9.2 µM
IC50 [8]: > 30 µM
IC50 [9]: 12.1 µM
IC50 [10]: 23.9 µM

CCOC(=O)C(C[N+](=O)[O-])c1ccc(OC)cc1 (stereo not given)
IC50 [1]: > 30 µM
IC50 [2]: > 30 µM
IC50 [3]: > 30 µM
IC50 [4]: > 30 µM
IC50 [5]: > 30 µM
IC50 [6]: > 30 µM
IC50 [7]: > 30 µM
IC50 [8]: > 30 µM
IC50 [9]: > 30 µM
IC50 [10]: > 30 µM

CCOC(=O)C(C[N+](=O)[O-])c1ccccc1 (stereo not given)
IC50 [1]: > 30 µM
IC50 [2]: > 30 µM
IC50 [3]: > 30 µM
IC50 [4]: > 30 µM
IC50 [5]: > 30 µM
IC50 [6]: > 30 µM
IC50 [7]: > 30 µM
IC50 [8]: > 30 µM
IC50 [9]: > 30 µM
IC50 [10]: > 30 µM

NC(=O)C(C[N+](=O)[O-])c1ccc(Cl)cc1 (stereo not given)
IC50 [1]: > 30 µM
IC50 [2]: > 30 µM
IC50 [3]: > 30 µM
IC50 [4]: > 30 µM
IC50 [5]: > 30 µM
IC50 [6]: > 30 µM
IC50 [7]: > 30 µM
IC50 [8]: > 30 µM
IC50 [9]: > 30 µM
IC50 [10]: > 30 µM

CCOC(=O)C(C[N+](=O)[O-])c1ccc(F)cc1 (stereo not given)
IC50 [1]: > 30 µM
IC50 [2]: > 30 µM
IC50 [3]: > 30 µM
IC50 [4]: > 30 µM
IC50 [5]: > 30 µM
IC50 [6]: > 30 µM
IC50 [7]: > 30 µM
IC50 [8]: > 30 µM
IC50 [9]: > 30 µM
IC50 [10]: > 30 µM

CN(C)C(=O)C(C[N+](=O)[O-])c1ccc(Cl)cc1 (stereo not given)
IC50 [1]: > 30 µM
IC50 [2]: > 30 µM
IC50 [3]: > 30 µM
IC50 [4]: > 30 µM
IC50 [5]: > 30 µM
IC50 [6]: > 30 µM
IC50 [7]: > 30 µM
IC50 [8]: > 30 µM
IC50 [9]: > 30 µM
IC50 [10]: > 30 µM

CCOC(=O)C(C[N+](=O)[O-])c1ccc(Cl)cc1 (stereo not given)
IC50 [1]: 19.2 µM
IC50 [2]: 10.9 µM
IC50 [3]: > 30 µM
IC50 [4]: > 30 µM
Activity [11]: 2.883%
IC50 [5]: > 30 µM
IC50 [6]: 22.8 µM
IC50 [7]: 7.7 µM
IC50 [8]: 14.9 µM
IC50 [9]: 1.6 µM
Activity [12]: 3.224%
Activity [13]: 22.72%
IC50 [10]: 17.3 µM
Activity [14]: Active
Activity [15]: 12.222%

CCOC(=O)C(C[N+](=O)[O-])c1ccccc1Cl (stereo not given)
IC50 [1]: > 30 µM
IC50 [2]: > 30 µM
IC50 [3]: > 30 µM
IC50 [4]: > 30 µM
IC50 [5]: > 30 µM
IC50 [6]: > 30 µM
IC50 [7]: > 30 µM
IC50 [8]: > 30 µM
IC50 [9]: 9.9 µM
IC50 [10]: > 30 µM

CCOC(=O)C(C)(C[N+](=O)[O-])c1ccc(Cl)cc1 (stereo not given)
IC50 [1]: > 30 µM
IC50 [2]: > 30 µM
IC50 [3]: > 30 µM
IC50 [4]: > 30 µM
IC50 [5]: > 30 µM
IC50 [6]: > 30 µM
IC50 [7]: > 30 µM
IC50 [8]: > 30 µM
IC50 [9]: > 30 µM
IC50 [10]: > 30 µM

CCOC(=O)C(C[N+](=O)[O-])c1ccc(C)cc1 (stereo not given)
IC50 [1]: > 30 µM
IC50 [2]: > 30 µM
IC50 [3]: > 30 µM
IC50 [4]: > 30 µM
IC50 [5]: > 30 µM
IC50 [6]: > 30 µM
IC50 [7]: > 30 µM
IC50 [8]: > 30 µM
IC50 [9]: > 30 µM
IC50 [10]: > 30 µM
